According to patent US20220117266A1, “NICKEL CHELATION THERAPY” (priority 2019, published 2022):
“And” between values parts separate entries of the source, which are not always exact repeats. Equal values may be shown once. Read-outs that look alike come from different tables or passages of the source.

Experiments:
[1] = test system: C. jejuni (strain 81-176, ATCC BAA-2151); assay: Growth inhibition, solid plates (CFU); format: cell-based, Campylobacter jejuni; settings: 0.5 mM metal salt in combination with 2 mM DMG
C. jejuni 81-176 = assay: Growth inhibition, liquid 96-well checkerboard (OD600, MIC, MBC); format: cell-based, Campylobacter jejuni; settings: for OD600: DMG 0 mM, 24 h
Protocol: Growth inhibition assays: liquid (96-well) plates experiments. This type of experiment can only be conducted with C. jejuni since the gas requirement for C. concisus (H2-enriched microaerobic) is not compatible with the use of 96-well plates. C. jejuni cells were grown as described above, harvested, and resuspended in sterile NaCl (8 g/L) to an OD600 of 0.1, corresponding approximately to 5×10^8 to 1×10^9 cells/mL. […] Wells were serially (2-fold) diluted in each direction (horizontal and vertical) to introduce all combinations. Wells with no DMG or metal compounds served as (positive) growth controls, and wells with no bacteria served as background (negative growth) controls. A typical protocol and loading plan are described in Table 7. The starting inoculum was at OD600 of 0.05, which corresponds approximately to 2.5×10^8 cells/mL to 5×10^8 cells/mL. After 24 hours incubation under microaerobic conditions at 37° C., OD600 was recorded using a 96 well-plate reader (Microtek). […] Resulting growth (or lack of growth) was examined after overnight culturing; the lowest concentration that inhibits 99.9% of the original culture was defined as MBC. MIC and MBC were determined based on tests (plates) done in triplicate.

[2] = test system: C. jejuni (strain NCTC 11168); assay: C. jejuni-chicken colonization experiment; format: in vivo, chickens; settings: Experiment 1, ad libitum CuSO4 (0.2 mM), 9 days p.i.
Protocol: Since chickens are natural hosts for C. jejuni, and chicken meat is one of the main sources of campylobacteriosis in humans, it was important to test the efficacy of DMG alone or in combination with copper in this animal model. Two independent trials were conducted, as described in FIG. 22. In both trials, the treatment was administered through ad libitum drinks, starting two to three days before C. jejuni inoculation (with strain NCTC 11168), and going through the end of each experiment. […] Nine days after inoculation with C. jejuni, chickens were euthanized, and their ceca were isolated for bacterial count. […] The treatment was administered two days before inoculation with C. jejuni, and chicken ceca were harvested eight days after inoculation.

Aβ40 peptide [3] = target: T1, Aβ40 peptide (Homo sapiens, UniProt P05067); assay: Thioflavin T (ThT)-based Aβ40 aggregation assay; format: biochemical; set-up: purchased rPeptides, Watkinsville, Ga., USA kit #A-1180-1; host or cells: E. coli; settings: for increase of average Aβ40 aggregation rate compared to no supplemental metal control: pH 7.4; for Relative Aβ40 aggregation rate (% control): DMG 0 μM; for Aβ40 peptide aggregation under all pHs tested: pH 6.5, 7.5 or 8.5, 25 mM Aβ40, CuSO4 25 mM, ZnSO4 10 mM or DMG 100 mM (so in the source)
Protocol: Amyloid Beta aggregation. […] This kit contained human recombinant Aβ40 peptide (>97% pure, as determined by manufacturer's HPLC) with the following sequence […] (SEQ ID NO:1), as provided by the manufacturer. […] The aggregation of Aβ40, was shown by the increase in fluorescence (lex=440 nm/lem=485 nm) over time, was followed for 60 min or 120 min, with reading every three or five min, using a Synergy MX reader (Biotek, Winooski, Vt.). A ThT-only background control (no Aβ40 peptide) was included in triplicate in all experiments and subtracted from all readings. The aggregation rate, defined as the increase in fluorescence per min (RFU/min), was calculated by using the formula [A(440,485) at T40min)−A(440,485) at T20min]/20.
Target sequence in this assay (P05067 672-711): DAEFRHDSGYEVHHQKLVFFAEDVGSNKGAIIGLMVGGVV

[4] = mouse, in vivo
Aβ40 peptide [5] = target: T1, Aβ40 peptide; assay: Isothermal titration calorimetry; format: binding; set-up: purchased rPeptides, Watkinsville, Ga., USA kit #A-1180-1; host or cells: E. coli; DS (entropy): unit not given here; settings: 20 μM Aβ40, 25° C.
From the text: Nickel binding to human recombinant Aβ40 peptide is confirmed by isothermal titration calorimetry. Isothermal titration calorimetry (ITC) has been already used to analyze copper or zinc binding to various Aβ peptides, including Ab40 (Talmard et al. Biochemistry 46, 13658-13666 (2007); Sacco et al. JBIC Journal of Biological Inorganic Chemistry 17, 531-541 (2012); Hatcher et al. The journal of physical chemistry B 112, 8160-8164 (2008)). In the current study, we used ITC to determine whether nickel can bind the Aβ40 peptide. The peptide (same used in ThT-based aggregation assays) was present in the sample cell at a concentration of 20 μM. Twenty injections of NiSO4 (1 mM solution, 5 μM increments in sample cell) were performed every 5 min under constant stirring (350 rpm) at 25° C., and the heat release was measured (FIG. 9). The heat release profile indicates Ni binding to the peptide (FIG. 9, top Panel).
Isothermal Titration Calorimetry. […] Briefly, 1 mg of lyophilized Aβ40 peptide (#A-1157-2, rPeptides) was resuspended with 1% NH4OH to a concentration of 250 μM, sonicated for 15-20 sec, before being diluted to a final concentration of 20 μM Aβ40 using ddH2O and TBS 10×, pH 7.4 (working buffer: NH4OH 0.2%, TBS 1×, pH 7.4 (“NTBS”)). […] All samples were degassed for 15 min at 25° C. before use. Titration was initiated using a program for 20 injections (2.38 μL each, every 5 min) with continuous stirring (350 rpm) at constant temperature (25° C.). ITC data were analyzed using NanoAnalyze 1.2 software (TA Instruments). Data obtained with the control experiment (Aβ40 peptide in sample cell, buffer in syringe) were subtracted from each experiment to account for any injection-related heat change.
Target sequence in this assay (P05067 672-711): as above

Aβ40 peptide [6] = target: T1, Aβ40 peptide; set-up: yields Aβ peptides of various lengths (38, 40 or 42 amino acids); settings: Talmard et al. 2007; read-out: Kd previously reported; cited from earlier work
Target sequence in this assay (P05067 672-711 limits assumed): as the sequence (P05067 672-711) above

[7] = Acute oral LD50 (literature); format: in vivo, mice
[8] = cited from earlier work
[9] = 100 mM metal (so in the source)
[10] = experiment A, supplemental metal 10 μM
[11] = experiment B, supplemental metal 100 μM

Compound | effect on C. jejuni growth [1] | MBC (C. jejuni 81-176; metal with DMG 0 mM) [µM] | MIC (C. jejuni 81-176; metal with DMG 0 mM) [µM] | MBC (C. jejuni 81-176; metal with DMG 0.5 mM) [µM] | MIC (C. jejuni 81-176; metal with DMG 0.5 mM) [µM] | MBC (C. jejuni 81-176; metal with DMG 1 mM) [µM] | MIC (C. jejuni 81-176; metal with DMG 1 mM) [µM] | MBC (C. jejuni 81-176; metal with DMG 4 mM) [µM] | MIC (C. jejuni 81-176; metal with DMG 4 mM) [µM] | increase of average Aβ40 aggregation rate compared to no supplemental metal control (Aβ40 peptide [3]; 10 mM metal (so in the source)) | increase of average Aβ40 aggregation rate compared to no supplemental metal control (Aβ40 peptide [3]; [9]) | Relative Aβ40 aggregation rate (% control) (Aβ40 peptide [3]; [10]) | further results
[Cl-].[Cl-].[Co+2] [CO^2+, CoCl2, reference compound] | no noticeable effect | > 1020 | > 1020 | > 1020 | > 1020 | > 1020 | > 1020 | 512 | 256 | – | – | – | –
O=S(=O)([O-])[O-].[Cu+2] [Cu, CuSO4, reference compound] | – | > 1020 | > 1020 | > 1020 | 1020 | – | – | – | – | no significant effect | no significant effect | 103 ± 19 | OD600 (C. jejuni 81-176; CuSO4 2 uM): 0.29; OD600 (C. jejuni 81-176; CuSO4 4 uM): 0.23; OD600 (C. jejuni 81-176; CuSO4 8 uM): 0.31; OD600 (C. jejuni 81-176; CuSO4 16 uM): 0.38; OD600 (C. jejuni 81-176; CuSO4 32 uM): 0.26; OD600 (C. jejuni 81-176; CuSO4 64 uM): 0.27; OD600 (C. jejuni 81-176; CuSO4 128 uM): 0.23; OD600 (C. jejuni 81-176; CuSO4 256 uM): 0.38; OD600 (C. jejuni 81-176; CuSO4 512 uM): 0.28; OD600 (C. jejuni 81-176; CuSO4 1024 uM): 0.43; C. jejuni Average CFUs per g of cecum (x10^8) [2]: 5.95 x10^8 CFUs per g of cecum; Chickens Cj-free (n=) ([2]; total n=4): 0; Chickens Colonized (n=) ([2]; total n=4): 4; Relative Aβ40 aggregation rate (% control) (Aβ40 peptide [3]; experiment C, supplemental metal 100 μM): 77 ± 2 % control; Aβ40 peptide aggregation under all pHs tested (Aβ40 peptide [3]): negligible
CC(=NO)C(C)=NO [D-1885, Dimethylglyoxime] | – | – | – | – | – | – | – | – | – | – | – | – | condition of animals given chelator alone [4]: appeared ill
O=S(=O)([O-])[O-].[Mn+2] [MnSO4] | no noticeable effect | – | – | – | – | – | – | – | – | – | – | – | –
O=S(=O)([O-])[O-].[Ni+2] [Ni, NiSO4, reference compound] | no noticeable effect | > 1020 | > 1020 | > 1020 | > 1020 | > 1020 | > 1020 | > 1020 | > 1020 | 2.5 fold | 5.7 fold | 252 ± 8 | MBC (C. jejuni 81-176; metal with DMG 2 mM): > 1020 µM; MIC (C. jejuni 81-176; metal with DMG 2 mM): > 1020 µM; DH (enthalpy) (Aβ40 peptide [5]): -1.2 kcal/mol; DS (entropy) (Aβ40 peptide [5]): 86; apparent stoichiometry (Aβ40 peptide [5]): 0.7 mole Ni(II) per mole of Aβ40 p; Kd (Aβ40 peptide [5]; pH 7.4, read-out: apparent Kd): 4.2 µM and ~4.2 µM; Ni(II)-induced Aβ40 aggregation at pH 6.5, compared to pH 7.5 (Aβ40 peptide [3]; NiSO4 25 mM (so in the source)): faster; Ni(II)-induced Aβ40 aggregation at pH 8.5 (Aβ40 peptide [3]; NiSO4 25 mM (so in the source)): absent; Relative Aβ40 aggregation rate (% control) (Aβ40 peptide [3]; [11]): 567 ± 61 % control
O=S(=O)([O-])[O-].[Zn+2] [Zn, ZnSO4, reference compound] | no noticeable effect | > 1024 | 512 | > 1024 | 512 | > 1024 | 512 | > 1024 | 512 | 5 fold | 14 fold | 505 ± 29 | MBC (C. jejuni 81-176; metal with DMG 2 mM): > 1024 µM; MIC (C. jejuni 81-176; metal with DMG 2 mM): 512 µM; Kd (Aβ40 peptide [6]): 7 ± 3 µM; Relative Aβ40 aggregation rate (% control) (Aβ40 peptide [3]; [11]): 1423 ± 258 % control; Aβ40 peptide aggregation under all pHs tested (Aβ40 peptide [3]): fastest and sharpest increase in fluorescence
CCN(CC)C(=S)SSC(=S)N(CC)CC [disulfiram] | – | – | – | – | – | – | – | – | – | – | – | – | LD50 amount per mouse [7]: approximately 20 μg; acute oral LD50 [8]: 1.013 mg/kg
